Results: US20250093270A1, “Method for Detecting Enzyme Activity and Fluorescent Probe Used in Said Method” (priority 2022, published 2025)

How the values were obtained:
[1] = Microdevice compatibility: fluorescence image of a microdevice loaded with probe and reacted with a thiol (leakage to oil, adsorption to well); conditions: for adsorption to the microdevice (inner wall of the reaction vessel / well): reaction vessel formed of CYTOP; for leakage of the probe enclosed in the well of the microdevice to the oil: sealing oil
Description: (§1) An enzyme stock solution was diluted with an assay buffer containing a fluorescent probe. Next, 40 μL of a reaction mixture was added to the microdevice (Simoa disk; Quanterx Corporation). Next, 80 μL of FC-70 (Sigma-Aldrich) was introduced into the microdevice to wash off the excess reaction mixture and form W/O droplets. A fluorescence signal of the catalytically produced fluorescent dye was measured under a fluorescence microscope, and the enzyme activity in the chamber was measured.
(§2) Fluorescence images were acquired using a 20× dry objective (Plan Apo 20x), an sCMOS camera (ORCA-FusionC14440, Hamamatsu Photonics K.K.), a white LED lighting unit (X-Cite Xylis, Opto Science, Inc.), and a fluorescence microscope (Ti2, Nikon Corporation) equipped with a motorized stage. In the analysis, measurement was performed using a solution containing sSiR (10 μM) as an internal standard and the focus was adjusted using fluorescence. Images were acquired in tile scan mode at full focus.
FIG. 5(a) illustrates a photograph of a state in which each of three kinds of probes containing 2- and 6-position unsubstituted BODIPY and GSH are supplemented with octanol and water. FIG. 5(b) illustrates a fluorescence image of a microdevice equipped with a probe and reacted with a thiol.
FIG. 5(d) illustrates fluorescence images of a microdevice containing human plasma that was loaded with a fluorescent probe (30 μM) in HEPES-buffer (10 mM, pH 7.4, containing 0.1% CHAPS) and incubated at 37° C. for 1.5 hours.
FIG. 7(a) illustrates a photograph (water-octanol distribution experiment) of a state in which each probe and GSH are supplemented with octanol and water. FIG. 7(b) illustrates a fluorescence image of a microdevice equipped with a probe and reacted with a thiol.
(§3) The image was acquired after incubation at 25° C. for 30 minutes.

[2] = Water-octanol distribution experiment (probe and GSH supplemented with octanol and water); format: physicochemical; conditions: for distribution to octanol (lipid-soluble solvent) side: water-octanol, with GSH
[3] = Comparison of water solubility by difference in elution time of LC-MS (C18); format: physicochemical; conditions: C18, ammonium formate/acetonitrile gradient
Description: FIG. 10 illustrates the analysis of a mixture of five compounds by LC-MS and the extracted ion chromatogram of each compound shown with the display color. The results of the diphosphonic acid form, the dicarboxylic acid form, the disulfonic acid form, the monosulfonic acid form, and the monocarboxylic acid form are shown from the left.
The compound was eluted with a linear gradient of A/B=100/0 at 0.5 minutes and 100/0 to 0/100 at 3 minutes detected at 500 nm (eluent A: H2O containing 10 mM ammonium formate; eluent B: acetonitrile 80%, H2O 20% containing 10 mM ammonium formate).

cholinesterase (ChE) = conditions: blood diluted to 1/10,000; corresponding to a total enzyme concentration of 1 pM
Description: as §1, §2
FIG. 5(c) illustrates a schematic diagram of a coupled assay of an acetylthiocholine system for detection of cholinesterase (ChE) activity.
as §3
The upper view is a fluorescence image of a microdevice equipped with a probe (30 μM), acetylthiocholine (1 mM), and a 1/10,000-fold diluted plasma sample of a healthy human subject. […]

acetylcholinesterase = experiment: Acetylthiocholine coupled assay in a microdevice with the nitrophenol-type probe; format: biochemical; conditions: probe 1 μM, acetylthiocholine iodide 1 mM, human plasma 1,000-fold dilution, 90 minutes at 37° C.
Description: The images were acquired after 90 minutes at 37° C.

Compound: 2,6-diCO2H Nitroolefin BODIPY [compound 9]
- adsorption to the microdevice (inner wall of the reaction vessel / well) [1]: the same result as in Example 1
- distribution to octanol (lipid-soluble solvent) side [2]: partially observed

Compound: 2,6-diPO3H2 Nitroolefin BODIPY [compound 17]
- water solubility ([1]; inferred from behaviour in the microdevice): high water solubility
- adsorption to the microdevice (inner wall of the reaction vessel / well) [1]: no adsorption to the microdevice was observed
- water solubility evaluated by elution time of LC-MS [3]: greatly improved
- λ (cholinesterase (ChE)): 0.03

Compound: 2,6-sulfo-nitroolefin BODIPY [compound 2]
- leakage of the probe enclosed in the well of the microdevice to the oil [1]: suppressed
- adsorption to the microdevice (inner wall of the reaction vessel / well) [1]: not observed

Compound: 2-CO2H Nitroolefin BODIPY [compound 4]
- adsorption to the microdevice (inner wall of the reaction vessel / well) [1]: the same result as in Example 1
- lipid solubility [2]: particularly highly lipid-soluble
- distribution to octanol (lipid-soluble solvent) side [2]: a large amount of the monocarboxylic acid form was distributed to octanol

Compound: 2-sulfo-nitroolefin BODIPY [compound 1]
- leakage of the probe enclosed in the well of the microdevice to the oil [1]: suppressed
- adsorption to the microdevice (inner wall of the reaction vessel / well) [1]: adsorption of the probe to the inner wall of the reaction vessel

Compound: 8-(p-nitroolefin)-BODIPY [2- and 6-position unsubstituted BODIPY, reference compound]
- leakage of the probe enclosed in the well of the microdevice to the oil [1]: dissolved in oil
- lipid solubility [2]: high lipid solubility

Compound: COc1cc(OC)c(C2=C3C=CC(=O)C=C3[Si](C)(C)c3cc(Oc4ccc(C)cc4[N+](=O)[O-])ccc32)cc1C [2.4-dinitro sTM]
- detection of acetylcholinesterase activity in blood (acetylcholinesterase): detected
